Data on 21 compounds can be found in patent publication US9505786B2, “Substituted annulated triazines and use thereof” (BAYER INTELLECTUAL PROPERTY GMBH, priority 2012, dated 2016).

Test [1] concerns recombinant guanylate cyclase reporter cell line. Briefly: Effect on a recombinant guanylate cyclase reporter cell line. Format: cell-based. As for the experimental part: B-2. Effect on a Recombinant Guanylate Cyclase Reporter Cell Line
The cellular activity of the compounds according to the invention is determined using a recombinant guanylate cyclase reporter cell line, as described in F. Wunder et al., Anal. Biochem. 339, 104-112 (2005).

The target in test [2] is human phosphodiesterase 5 (PDE 5) (Homo sapiens (Human), UniProt O76074). Kind of test: Inhibition of human phosphodiesterase 5 (PDE 5), SPA assay. The format is biochemical. To be noted: PDE 5 preparation from human platelets, [8-3H] cGMP substrate. The protocol:
B-6. Inhibition of Human Phosphodiesterase 5 (PDE 5)
PDE 5 preparations are obtained from human platelets by disruption (Microfluidizer®, 800 bar, 3 passes), followed by centrifugation (75 000 g, 60 min, 4° C.) and ion exchange chromatography of the supernatant on a Mono Q 10/10 column (linear sodium chloride gradient, elution with a 0.2-0.3M solution of sodium chloride in buffer (20 mM Hepes pH 7.2, 2 mM magnesium chloride). Fractions having PDE 5 activity are combined (PDE 5 preparation) and stored at −80° C.
To determine their in vitro action on human PDE 5, the test substances are dissolved in 100% DMSO and serially diluted. Typically, dilution series (1:3) from 200 μM to 0.091 μM are prepared (resulting final concentrations in the test: 4 μM to 0.0018 μM). In each case 2 μl of the diluted substance solutions are placed into the wells of microtitre plates (Isoplate-96/200W; Perkin Elmer). Subsequently, 50 μl of a dilution of the above-described PDE 5 preparation are added. The dilution of the PDE 5 preparation is chosen such that during the later incubation less than 70% of the substrate are converted (typical dilution: 1:100; dilution buffer: 50 mM Tris/hydrochloric acid pH 7.5, 8.3 mM magnesium chloride, 1.7 mM EDTA, 0.2% BSA). The substrate, [8-^3H] cyclic guanosine-3′,5′-monophosphate (1 μCi/μl; Perkin Elmer) is diluted 1:2000 with assay buffer (50 mM tris/hydrochloric acid pH 7.5, 8.3 mM magnesium chloride, 1.7 mM EDTA) to a concentration of 0.0005 μCi/μl. By addition of 50 μl (0.025 μCi) of the diluted substrate, the enzyme reaction is finally started. The test mixtures are incubated at room temperature for 60 min and the reaction is stopped by adding 25 μl of a suspension of 18 mg/ml yttrium scintillation proximity beads in water (phosphodiesterase beads for SPA assays, RPNQ 0150, Perkin Elmer). The microtitre plates are sealed with a film and left to stand at room temperature for 60 min. Subsequently, the plates are analysed for 30 s per well in a Microbeta scintillation counter (Perkin Elmer). IC50 values are determined using the graphic plot of the substance concentration against percentage PDE 5 inhibition.

The structures appear in SMILES notation.

With `CC1(CC2CC2)C(=O)Nc2nc(-c3nn(Cc4ccccc4F)c4ncc(F)cc34)nnc21` (racemic) [Example 5-1, 7-(Cyclopropylmethyl)-3-[5-fluoro-1-(2-fluorobenzyl)-1H-pyrazolo[3,4-b]pyridin-3-yl]-7-methyl-5,7-dihydro-6H-pyrrolo[2,3-e][1,2,4]triazin-6-one], the “MEC (minimum effective concentration)” value in test [1] is 100 nM.
For the compound `CC1(CC2CC2)C(=O)Nc2nc(-c3nn(Cc4ccccc4F)c4ncc(F)cc34)nnc21` (racemic) [Example 5-2, 7-(Cyclopropylmethyl)-3-[5-fluoro-1-(2-fluorobenzyl)-1H-pyrazolo[3,4-b]pyridin-3-yl]-7-methyl-5,7-dihydro-6H-pyrrolo[2,3-e][1,2,4]triazin-6-one], the “MEC (minimum effective concentration)” value in test [1] was determined as 300 nM.
`CCC1(C)C(=O)Nc2nc(-c3nn(Cc4ccccc4F)c4ncc(F)cc34)nnc21` (racemic) [Example 7-1, 7-Ethyl-3-[5-fluoro-1-(2-fluorobenzyl)-1H-pyrazolo[3,4-b]pyridin-3-yl]-7-methyl-5,7-dihydro-6H-pyrrolo[2,3-e][1,2,4]triazin-6-one]: the “MEC (minimum effective concentration)” value in test [1] came out at 100 nM.
Take `CCC1(C)C(=O)Nc2nc(-c3nn(Cc4ccccc4F)c4ncc(F)cc34)nnc21` (racemic) [Example 7-2, 7-Ethyl-3-[5-fluoro-1-(2-fluorobenzyl)-1H-pyrazolo[3,4-b]pyridin-3-yl]-7-methyl-5,7-dihydro-6H-pyrrolo[2,3-e][1,2,4]triazin-6-one]: the “MEC (minimum effective concentration)” value in test [1] is 100 nM.
As a reminder, the IC50 is the concentration at which inhibition is half-maximal. Low readings indicate higher potency, high ones lower potency. As to `C=CCCC1(C)C(=O)Nc2nc(-c3nn(Cc4ccccc4F)c4ncccc34)nnc21` (racemic) [Example 23, (rac) (7S)-7-(But-3-en-1-yl)-3-[1-(2-fluorobenzyl)-1H-pyrazolo[3,4-b]pyridin-3-yl]-7-methyl-5,7-dihydro-6H-pyrrolo[2,3-e][1,2,4]triazin-6-one], in test [1], the “MEC (minimum effective concentration)” value is recorded as 30 nM. This compound came in with an IC50 in test [2] of 0.14 µM.
The matching figures for `CCOC(=O)C1C(=O)Nc2nc(-c3nn(Cc4ccccc4F)c4ncccc34)nnc21` (racemic) [Example 25, (rac) Ethyl 3-[1-(2-fluorobenzyl)-1H-pyrazolo[3,4-b]pyridin-3-yl]-6-oxo-6,7-dihydro-5H-pyrrolo[2,3-e][1,2,4]triazine-7-carboxylate]: 100 nM and 1.5 µM.
For the compound `CC1(CC(=O)O)C(=O)Nc2nc(-c3nn(Cc4ccccc4F)c4ncccc34)nnc21` (racemic) [Example 26, (rac) {3-[1-(2-Fluorobenzyl)-1H-pyrazolo[3,4-b]pyridin-3-yl]-7-methyl-6-oxo-6,7-dihydro-5H-pyrrolo[2,3-e][1,2,4]triazin-7-yl}acetic acid], the “MEC (minimum effective concentration)” value in test [1] is 300 nM. The same compound displayed an IC50 in test [2] of 3.4 µM.
With `CCOC(=O)C1(C)C(=O)Nc2nc(-c3nn(Cc4ccccc4F)c4ncccc34)ncc21` (racemic) [Example 33, (rac) Ethyl 2-[1-(2-fluorobenzyl)-1H-pyrazolo[3,4-b]pyridin-3-yl]-5-methyl-6-oxo-6,7-dihydro-5H-pyrrolo[2,3-d]pyrimidine-5-carboxylate], the “MEC (minimum effective concentration)” value in test [1] is 10 nM. In addition, the IC50 in test [2] was determined as 0.87 µM.
`CC1(C(=O)NC2CC2)C(=O)Nc2nc(-c3nn(CCC(F)(F)F)c4ncccc34)ncc21` (racemic) [Example 49, (rac) N-Cyclopropyl-5-methyl-6-oxo-2-[1-(3,3,3-trifluoropropyl)-1H-pyrazolo[3,4-b]pyridin-3-yl]-6,7-dihydro-5H-pyrrolo[2,3-d]pyrimidine-5-carboxamide]: the “MEC (minimum effective concentration)” value in test [1] is on record as 300 nM. The compound further showed an IC50 in test [2] of 4 µM.
In the case of `CC1(CC(=O)O)C(=O)Nc2nc(-c3nn(Cc4ccccc4F)c4ncc(F)cc34)nnc21` (racemic) [Example 52, (rac){3-[5-Fluoro-1-(2-fluorobenzyl)-1H-pyrazolo[3,4-b]pyridin-3-yl]-7-methyl-6-oxo-6,7-dihydro-5H-pyrrolo[2,3-e][1,2,4]triazin-7-yl}acetic acid], in test [1], the “MEC (minimum effective concentration)” value was determined as 1000 nM. This compound returned an IC50 in test [2] of 3.9 µM.
As to `CCOC(=O)C1(C)CC(=O)Nc2nc(-c3nn(Cc4ccccc4F)c4ncccc34)nnc21` (stereo not drawn) [Example 2, Ethyl 3-[1-(2-fluorobenzyl)-1H-pyrazolo[3,4-b]pyridin-3-yl]-8-methyl-6-oxo-5,6,7,8-tetrahydropyrido[2,3-e][1,2,4]triazine-8-carboxylate], in test [1], the “MEC (minimum effective concentration)” value was 300 nM. Moreover, the IC50 in test [2] was found to be 0.49 µM.
Turning to `COc1ccc(Cn2nc(-c3nnc4c(n3)NC(=O)C4(C)C)c3cc(F)cnc32)cc1` [Example 8, 3-[5-Fluoro-1-(4-methoxybenzyl)-1H-pyrazolo[3,4-b]pyridin-3-yl]-7,7-dimethyl-5,7-dihydro-6H-pyrrolo[2,3-e][1,2,4]triazin-6-one], the “MEC (minimum effective concentration)” value in test [1] is recorded as 3000 nM. Moreover, the IC50 in test [2] came out at 0.15 µM.
On to `CC1(C)C(=O)Nc2nc(-c3nn(Cc4ccccc4F)c4nc(C(F)(F)F)ccc34)nnc21` [Example 19, 3-[1-(2-Fluorobenzyl)-6-(trifluoromethyl)-1H-pyrazolo[3,4-b]pyridin-3-yl]-7,7-dimethyl-5,7-dihydro-6H-pyrrolo[2,3-e][1,2,4]triazin-6-one], for which the “MEC (minimum effective concentration)” value in test [1] turned out to be 1000 nM. This compound also displayed an IC50 in test [2] of 0.038 µM.
`Cc1nc2c(cc1F)c(-c1nnc3c(n1)NC(=O)C3(C)C)nn2Cc1ccccc1F` [Example 21, 3-[5-Fluoro-1-(2-fluorobenzyl)-6-methyl-1H-pyrazolo[3,4-b]pyridin-3-yl]-7,7-dimethyl-5,7-dihydro-6H-pyrrolo[2,3-e][1,2,4]triazin-6-one]: the “MEC (minimum effective concentration)” value in test [1] was 30 nM. In addition, the IC50 in test [2] turned out to be 0.022 µM.
With `Cc1nc(-c2nn(Cc3ccccc3F)c3ncccc23)nc2c1C(C)(C)C(=O)N2` [Example 22, 2-[1-(2-Fluorobenzyl)-1H-pyrazolo[3,4-b]pyridin-3-yl]-4,5,5-trimethyl-5,7-dihydro-6H-pyrrolo[2,3-d]pyrimidin-6-one], in test [1], the “MEC (minimum effective concentration)” value is recorded as 100 nM. The compound further yielded an IC50 in test [2] of 0.13 µM.
Take `CC1(C)C(=O)Nc2nc(-c3nn(Cc4ccccc4F)c4ncccc34)nc(CNS(C)(=O)=O)c21` [Example 24, N-({2-[1-(2-Fluorobenzyl)-1H-pyrazolo[3,4-b]pyridin-3-yl]-5,5-dimethyl-6-oxo-6,7-dihydro-5H-pyrrolo[2,3-d]pyrimidin-4-yl}methyl)methanesulphonamide]: the “MEC (minimum effective concentration)” value in test [1] is recorded as 30 nM. In test [2], the IC50 was determined as 0.048 µM.
`CC(C)(C)OC(=O)C#Cc1nc(-c2nn(Cc3ccccc3F)c3ncccc23)nc2c1C(C)(C)C(=O)N2` [Example 50, tert-Butyl 3-{2-[1-(2-fluorobenzyl)-1H-pyrazolo[3,4-b]pyridin-3-yl]-5,5-dimethyl-6-oxo-6,7-dihydro-5H-pyrrolo[2,3-d]pyrimidin-4-yl}prop-2-ynoate]: the “MEC (minimum effective concentration)” value in test [1] was found to be 300 nM.
In the case of `CC1(C)C(=O)Nc2nc(-c3nn(Cc4ccccc4F)c4ncc(F)cc34)nc(CNC(=O)C3CC3)c21` [Example 56, N-({2-[5-Fluoro-1-(2-fluorobenzyl)-1H-pyrazolo[3,4-b]pyridin-3-yl]-5,5-dimethyl-6-oxo-6,7-dihydro-5H-pyrrolo[2,3-d]pyrimidin-4-yl}methyl)cyclopropanecarboxamide], in test [1], the “MEC (minimum effective concentration)” value was found to be 30 nM.
On to `CC(C)(O)CCc1nc(-c2nn(Cc3ccccc3F)c3ncccc23)nc2c1C(C)(C)C(=O)N2` [Example 59, 2-[1-(2-Fluorobenzyl)-1H-pyrazolo[3,4-b]pyridin-3-yl]-4-(3-hydroxy-3-methylbutyl)-5,5-dimethyl-5,7-dihydro-6H-pyrrolo[2,3-d]pyrimidin-6-one], for which the “MEC (minimum effective concentration)” value in test [1] was found to be 300 nM.
Consider `CC1(C)C(=O)Nc2nc(-c3nn(Cc4ccccc4F)c4ncccc34)nc(Cl)c21` [Example 60, 4-Chloro-2-[1-(2-fluorobenzyl)-1H-pyrazolo[3,4-b]pyridin-3-yl]-5,5-dimethyl-5,7-dihydro-6H-pyrrolo[2,3-d]pyrimidin-6-one], for which the “MEC (minimum effective concentration)” value in test [1] turned out to be 300 nM.
On to `CC1(C)C(=O)Nc2nc(-c3nn(Cc4ccccc4F)c4ncccc34)nc(C#CC(=O)O)c21` [Example 62, 3-{2-[1-(2-Fluorobenzyl)-1H-pyrazolo[3,4-b]pyridin-3-yl]-5,5-dimethyl-6-oxo-6,7-dihydro-5H-pyrrolo[2,3-d]pyrimidin-4-yl}prop-2-ynoic acid], for which the “MEC (minimum effective concentration)” value in test [1] is on record as 30 nM.
